Data published in patent US12509734B2, “Systems and methods to assess microbiomes and treatments thereof” (priority 2013, dated 2025).

Assays:
vaginal microbiota = test: 16S-C&S (broad-spectrum clone and sequence) with and without LB-blocking of acute BV and post-tinidazole lavages (Tables 3C, 3D); format: in vivo, human
Source text: Amplicon cloning. Amplicon cloning. Broad-spectrum PCR targets were amplified for varying cycle numbers, typically Cp plus 1 or 2 cycles to achieve a “just visible” product on an agarose ethidium-bromide gel. Amplicons derived from PB primers were sequenced directly with the rationale that any species present at 5-10× others amplified by the same PB primer would generate a single, readable sequence; amplicons from PB primers that were unreadable as uncloned amplicons were cloned after nested PCR. They were amplified to maximum fluorescence or maximum cycles for that primer. Products were cleaned by ultrafiltration with the MONTAGE™ PCR kit UFC7PCR50 (Millipore) or QIAQUICK® PCR purification kit (QIAGEN®). One to three microliters of the 20 μl purified product was ligated into pGEM-T Easy vector using the PGEM-T™ Easy Ligation Kit (Promega) according to the manufacturer's specifications. The ligation reaction was carried out for from 4 hours to overnight at 4° C. Forty microliters of E. coli cells (strain XL1-BLUE®, Stratagene) were electroporated using a BioRad GenePulser and Pulse Controller (set at 2.5 kV, 25 μFD capacitance, and 200 ohms resistance) with 1 μl of the ligation, allowed to recover in LB broth 1 h at 37° C., then plated onto LB agar plus 100 μg/ml ampicillin with 0.1 mM IPTG and 20 μg/ml X-gal and grown overnight at 37° C. White colonies and a few blue control colonies were picked from the plates into 100 μl of 15% glycerol or TE, incubated at 94° C. for 5 m; 2 μl of this was amplified in 8 μl of reaction buffer as described, using primers that flank the cloning site in the vector (pUC-F […] (SEQ ID NO: 88), pUC-R […] (SEQ ID NO: 89); 95° C. (1 m), [95° C. (30 s), 45° C. (30 s), 72° C. (30 s)] for 40 cycles, 72° C. (5 m). Extension times for cloned amplicons from PB primers were adjusted as appropriate for each amplicon size according to Tables 3A-3D. An aliquot of each amplicon was tested by agarose gel electrophoresis.
Sequencing and analysis. Full length amplicons (5 μl) were enzymatically cleaned using a 5 μl solution of 0.1 units of NTPhos thermolabile phosphatase and 1 unit of Exonuclease I (Epicentre Biotechnologies), in 20 mM Tris pH 8.3, 50 mM KCl and 10 mM MgCl2 (1×PCR reaction buffer, Invitrogen), incubated at 37° C. for 15 m, then inactivated at 80° C. for 15 m, and used for sequencing. Mini-libraries were constructed from amplicons with co-dominant species (which generate mixed template reads when uncloned); 17 mini-libraries each averaging 11 sequences were sequenced. Enzymatically cleaned amplicons were sequenced with the same primers used for amplification, or T7 for cloned amplicons (Functional Biosciences, Inc.). Sequences were uploaded to Ribosomal Database Project II using the Pipeline function in MyRDP for trimming, quality scoring, alignment, and identification. Only base calls with PHRED quality scores (Q) above 20 were considered. A small number of high quality sequences were rejected by the website as non-ribosomal and were not considered further in this analysis. Aligned sequences, their closest hits via SeqMatch, and manually selected reference species, were downloaded from myRDP, manually trimmed to common 5′ and 3′ ends, and analyzed with Molecular Evolutionary Genetics Analysis (MEGA4 and MEGA5) software. From this, trees were constructed using the bootstrapped Neighbor-Joining method or the Maximum Composite Likelihood method, and used for species identification.
Compositions determined by 16S-C&S were simply tallies of sequences in each taxa, defined here as those with >97% identity. These tallies were adjusted in libraries from LB-blocked PCR with a correction factor. To determine this factor, the titers of Gardnerella and LB were independently determined with and without blocking by PB-qPCR. Their ratio in the unblocked sample (7×10^−6) was increased in the blocked sample to 0.09, indicating an enrichment of 0.09/7×10^−6=12,600. […]

bacterial vaginosis (BV) = test: Clinical assessment of BV patients after therapy (Amsel criteria, Nugent score, recurrence); format: in vivo, human
Source text: Patients. Five African American participants were followed at the Vaginitis Clinic at Wayne State University and had been treated for recurrent episodes symptomatic bouts of BV. Patients were enrolled after protocol explanation and written informed consent was obtained. The study was endorsed by the Human Investigational Review Board of Wayne State University. At the time of enrollment, patients were diagnosed with florid symptomatic acute BV, characterized by the presence of at least 3 of the 4 Amsel criteria (homogeneous vaginal discharge, pH elevated above 4.5, clue cells>20%, positive whiff test) and Nugent scores of at least 8.
At this immediate PT visit, patients were given Catch-All Sample Collection Swabs (Epicentre Biotechnologies, Madison, WI) and 15 mL conical tubes for vaginal specimen self-collection. […] Samples from a previously characterized group of recurrent BV patients, sampled before and after treatment, were also evaluated by Lb-qPCR. Reichman et al., Sexually Transmitted Diseases 36: 732-734, 2009.

[1] = post tinidazole lavage, 16S-C&S, Lactobacillaceae clones
[2] = post tinidazole lavage, 16S-C&S, target Bacteroidaceae/uc Prevotellaceae

Compound: CCS(=O)(=O)CCn1c([N+](=O)[O-])cnc1C [tinidazole]
- non-LB share of isolates in post-tinidazole sample (vaginal microbiota; FIG. 3, B2, LB-blocked): 0.003%
- ID Clones: L. iners (vaginal microbiota; [1]): L. iners 83%, L.
- ID Clones: L. jensenii (vaginal microbiota; [1]): jensenii 17%,
- Cells/sample (vaginal microbiota; post tinidazole lavage, 16S-C&S, target Actinobacteria: Actinobacteridae): 1.3E+06 Cells/sample
- Cells/sample (vaginal microbiota; post tinidazole lavage, 16S-C&S, target Alpha-Proteobacteria): 3.4E+04 Cells/sample
- Cells/sample (vaginal microbiota; [2]): 3.4E+04 Cells/sample
- ID Clones (vaginal microbiota; [2]): Bacteroides sp.
- Cells/sample (vaginal microbiota; post tinidazole lavage, 16S-C&S, target Beta-Proteobacteria): 3.4E+04 Cells/sample
- Cells/sample (vaginal microbiota; post tinidazole lavage, 16S-C&S, target Broad-spectrum): 8.4E+09 Cells/sample
- Cells/sample (vaginal microbiota; post tinidazole lavage, 16S-C&S, target Clostridiales Incertae Sedis XI): 0 Cells/sample
- Cells/sample (vaginal microbiota; post tinidazole lavage, 16S-C&S, target Clostridiales Incertae Sedis XII): 0 Cells/sample
- Cells/sample (vaginal microbiota; post tinidazole lavage, 16S-C&S, target Coriobacteridae): 0 Cells/sample
- Cells/sample (vaginal microbiota; post tinidazole lavage, 16S-C&S, target Cross-family Clostridia): 0 Cells/sample
- Cells/sample (vaginal microbiota; post tinidazole lavage, 16S-C&S, target Enterobacteriales, Pasteurellales, Pseudomonadaceae): 3.4E+05 Cells/sample
- Cells/sample (vaginal microbiota; post tinidazole lavage, 16S-C&S, target Epsilon-Proteobacteria): 3.4E+04 Cells/sample
- Cells/sample (vaginal microbiota; post tinidazole lavage, 16S-C&S, target Firmicute: Lactobacillaceae): 8.4E+09 Cells/sample
- Cells/sample (vaginal microbiota; post tinidazole lavage, 16S-C&S, target Fusobacterium): 0 Cells/sample
- Cells/sample (vaginal microbiota; post tinidazole lavage, 16S-C&S, target Lachnospiracea uc & incertae sedis Clostridium IVa): 0 Cells/sample
- Cells/sample (vaginal microbiota; post tinidazole lavage, 16S-C&S, target Megasphaera/Dialister/Veillonella): 0 Cells/sample
- Cells/sample (vaginal microbiota; post tinidazole lavage, 16S-C&S, target Mobiluncus): 0 Cells/sample
- Cells/sample (vaginal microbiota; post tinidazole lavage, 16S-C&S, target Mycoplasmatales): 0 Cells/sample
- Cells/sample (vaginal microbiota; post tinidazole lavage, 16S-C&S, target Peptostreptococcaceae): 0 Cells/sample
- Cells/sample (vaginal microbiota; post tinidazole lavage, 16S-C&S, target Staphylococcus): 0 Cells/sample
- Cells/sample (vaginal microbiota; post tinidazole lavage, 16S-C&S, target Streptococcus): 0 Cells/sample
- Cells/sample (vaginal microbiota; post tinidazole lavage, 16S-C&S, target uc Clostridiales (BVAB283 subset)): 0 Cells/sample
- Clinical status after treatment (bacterial vaginosis (BV); BV patient (Nugent 10 at acute phase), 500 mg twice a day for 10 days): full remission
- Amine test after therapy (bacterial vaginosis (BV); P4, 500 mg bid for 7 days): negative
- Clinical status one week after completing therapy (bacterial vaginosis (BV); P4, 500 mg bid for 7 days): entirely asymptomatic
- Vaginal pH after therapy (bacterial vaginosis (BV); P4, 500 mg bid for 7 days): 4.2
- Recurrence of BV (bacterial vaginosis (BV); P4, followed for a month): did not recur
- Outcome at return within three weeks by Amsel criteria (bacterial vaginosis (BV); five recurrent BV patients, Nugent scores of 0 except Patient 5): clinical cure
